Reference: publication PMC12052742, “Engineering a newly identified alcohol dehydrogenase from Sphingobium Sp. for efficient utilization of nicotinamide cofactors biomimetics” (Bioresources and Bioprocessing, 2025)

How the values were obtained:
Type in all cases: biochemical, Sphingobium sp. SYK-6
SpADH2 variant A47G = assay: Activity of variant in oxidation of syringyl alcohol with p-BANA^+ (Fig. 5), A47G; settings: cofactor p-BANA^+, substrate syringyl alcohol
Procedure: (§1) In the first round of screening, saturation mutagenesis was constructed for six positions (W114, T177, G172, G316, A47, and R227). […] Therefore, in the second round of mutagenesis, six additional sites within the 5 Å range of the cofactor ribose (H43, V202, T265, V288, G289, and A290) were selected for saturation mutagenesis screening (Fig. 6c and Fig. S6). Three beneficial mutations were identified. […] Subsequently, combinatorial mutagenesis was performed, resulting in 11 double variants and 3 triple variants.
(§2) Fig. 5 Relative activity of SpADH2 and its variants in oxidation of syringyl alcohol when utilizing p-BANA^+ as cofactor
(§3) In preliminary screening by spectrophotometric analysis, PBS (pH 7.5) buffer (50 µL) in a 96-well plate was pre-warmed at 30°C for 15 min, and a final concentration of 5 mM p-BANA^+ and 1 mM substrate syringyl alcohol were added, and 50 µL of crude enzyme were add to each well to start the reaction, with WT as control. The reaction mixture was incubated at 30°C for 1 h, followed by addition of fluorescent probes in a final concentration of 0.2 mM, and was subjected to determination under 537 nm as described above.

SpADH2 variant H43L [1] = assay: Substrate kinetic assay, H43L
Procedure: (§4) Specific activity of SpADH2 in substrate spectrum study was measured spectrophotometrically. PBS (pH 7.5) buffer was pre-heated at 30°C for 15 min. For NAD^+, 0.05 µg SpADH2 was added to the PBS buffer (100 µL), and a final concentration of 2 mM NAD^+ was added. For tsNCBs cofactor p-BANA^+, 5 µg SpADH2 and a final concentration of 7.5 mM p-BANA^+ was added. The mixture was carried out in a 96-well microplate, and a final concentration of 5 mM substrate was added to start the reaction. The microplate was incubated in 30°C for 1 h. Florescent probes (2-[2-(1,4-dihydro-1-methyl-3-quinolinyl)ethenyl]-1,3,3-trimethyl-3H-indolium) in a final concentration of 0.2 mM (100 µL) was added (Scheme S1), and the microplate was placed in a microplate reader immediately for measurement under 537 nm (Fomin et al. [2016]).
(§5) Kinetic analysis of SpADH2 and its variants were carried out following Michaelis-Menten equation or Michaelis-Menten excess substrate inhibition equation. For of the substrate kinetic assays, concentrations of cofactors were fixed at 5 mM for NAD^+ and 7.5 mM for p-BANA^+. For cofactor kinetic assays, the concentration of 1a was fixed at 5 mM.
(§6) Specific activity was determined spectrophotometrically as above except that gradient 1a (0−20 mM) or cofactor (0−35 mM) concentrations were applied.
(§7) Cofactor specificity ratio (CSR) represents the ratio of catalytic efficiency of p-BANA^+ to NAD^+ for each enzyme, and relative specificity (RS) stands for the CSR ratio of variants to WT (King et al. [2020]).

SpADH2 variant A290I [2] = assay: Cofactor spectrum (HPLC specific activity), variant A290I; settings: 1a 5 mM, cofactor 7.5 mM, pH 7.5, 30℃, 5 µg enzyme, 1 h
Procedure: Fig. 8 Cofactor spectrums of SpADH2 and its variants. The darkness of color for each cofactor stands for the activity. For each cofactor cube, top left: WT, top right: H43L, bottom left: A290I, bottom right: H43L/A290I. (a) Natural cofactors and NMN^+ are shown in purple. (b) tsNCBs are shown in cyan. The evaluation of cofactor spectrum was carried out under following conditions: 50 mM PBS buffer (pH 7.5) and 30℃, with 1a (5 mM) as substrate and different cofactors (7.5 mM) as cofactor. For NAD(P)^+ and NMN^+, 0.05 µg enzyme was added, and for tsNCBs, 5 µg enzyme was added. The results were analyzed by HPLC after 1 h reaction
Specific activity of SpADH2 in cofactor spectrum study was determined by HPLC analysis. PBS (pH 7.5) buffer was pre-heated at 30°C for 15 min. For NAD(P)^+ and NMN^+, 0.05 µg SpADH2 was added to PBS buffer (100 µL). For tsNCBs, 5 µg SpADH2 was added. A final concentration of 7.5 mM cofactor was added to the reaction mixture. Finally, a final concentration of 5 mM substrate was added to start the reaction. The reactions were conducted at 30°C.
One unit of enzyme activity is defined as the amount of enzyme required to form 1 µmol 1b per minute at pH 7.5 and 30°C. Same reaction without cofactor was used as a blank control.

SpADH2 variant H43L [3] = assay: Cofactor kinetic assay, H43L
Procedure: as §4, §5, §6, §7

SpADH2 variant A290I [4] = assay: Substrate kinetic assay, A290I
Procedure: as §4, §5, §6, §7

[5] = test system: SpADH2 variant H43L/A290I; assay: Activity of variant in oxidation of syringyl alcohol with p-BANA^+ (Fig. 5), H43L/A290I; settings: cofactor p-BANA^+
Procedure: as §1, §2, §3

SpADH2 variant A47L = assay: Activity of variant in oxidation of syringyl alcohol with p-BANA^+ (Fig. 5), A47L; settings: cofactor p-BANA^+, substrate syringyl alcohol
Procedure: as §1, §2, §3

[6] = 1a varied, cofactor (= label) fixed: 5 mM NAD^+ or 7.5 mM p-BANA^+
[7] = substrate kinetics, cofactor = label

Question: What does the source list for `NC(=O)c1ccc[n+](Cc2ccc(C(=O)O)cc2)c1` [p-BANA^+, para-3-carbamoyl-1-(4-carboxybenzyl)pyridin-1-ium]?
Answer: fold higher activity than WT (SpADH2 variant A47G): 1.3 fold; kcat (SpADH2 variant H43L [1]; [6]): 2.5 ± 0.9 min^− 1; Cofactor specificity ratio (catalytic efficiency of p-BANA^+ to NAD^+) (SpADH2 variant H43L [1]; substrate kinetics): 9.30×10^-4; Relative specificity (CSR ratio of variant to WT) (SpADH2 variant H43L [1]; substrate kinetics): 61.2; fold increase in kcat vs WT (SpADH2 variant H43L [1]; [7]): 2 fold; catalytic activity with the tsNCB as cofactor (SpADH2 variant A290I [2]): 160.82 U/g; kcat (SpADH2 variant H43L [3]; cofactor (= label) varied, 1a fixed at 5 mM): 5.1 ± 2.0 min^− 1; Km (SpADH2 variant H43L [3]; cofactor (= label) varied, 1a fixed at 5 mM, pH 7.5, 30°C): 28 ± 13 mM; Ki (SpADH2 variant H43L [3]; cofactor (= label) varied, 1a fixed at 5 mM, read-out: Ki (cofactor inhibition)): 5.4 ± 2.5 mM; Cofactor specificity ratio (catalytic efficiency of p-BANA^+ to NAD^+) (SpADH2 variant H43L [3]; cofactor kinetics): 3.08×10^-4; Relative specificity (CSR ratio of variant to WT) (SpADH2 variant H43L [3]; cofactor kinetics): 8.08; kcat (SpADH2 variant A290I [4]; [6]): 11 ± 4.1 min^− 1; Cofactor specificity ratio (catalytic efficiency of p-BANA^+ to NAD^+) (SpADH2 variant A290I [4]; substrate kinetics): 2.95×10^-4; Relative specificity (CSR ratio of variant to WT) (SpADH2 variant A290I [4]; substrate kinetics): 19.4; fold increase in kcat vs WT (SpADH2 variant A290I [4]; [7]): 10 fold; fold higher activity than WT ([5]; substrate syringyl alcohol): 7 fold; activity ([5]; substrate syringyl alcohol (Fig. 5)): 70 U/g; fold higher activity than WT (SpADH2 variant A47L): 4.3 fold
